Test [1] has as its system M. Catarrhalis. The experiment in a line: Antibacterial activity, standard MIC assay modified by inclusion of cyclodextrin. The test is classed as cell-based. As to conditions: Moraxella catarrhalis; MIC assay with cyclodextrin; range over the listed Examples; read-out: MIC against M. Catarrhalis. Here is the method:
(§1) Compounds of the present invention were assayed for antibacterial activity against a range of pathogenic organisms (strains of S aureus, S pneumoniae, E faecalis, H influenzae and M catarrhalis) in a standard MIC assay modified by the inclusion of cyclodextrin, to assist with solubility.

Test [2] concerns S. aureus, S. pneunmoniae, and E. faecalis. The description is as above. The test is classed as cell-based. As to conditions: read-out: MIC against some strains of S. aureus, S. pneumoniae and E. faecalis. As for the experimental part:
as §1

Test [3] deals with isoleucyl t-RNA synthetase. As to conditions: background of the invention; cited from earlier work.
The subject of test [4] is H. influenzae. As to the kind of experiment: Antibacterial activity, standard MIC assay modified by inclusion of cyclodextrin. Format: cell-based. As to conditions: MIC assay with cyclodextrin. Here is the method:
as §1

The mark [5] stands for this setting: some strains of the organisms, MIC assay with cyclodextrin.

Structures are written as SMILES. ≈ marks a conversion by molar mass, not a printed value. Where a name gives a salt, the structure may show the parent alone. Read-outs that look alike come from different tables or passages of the source. A value given as a limit tells only on which side of the number the result lay.

The term MIC denotes the lowest concentration that inhibits growth of the organism.

As for `O=c1cc(NCCCNCc2cc(Br)c(Br)c(Br)c2)[nH]c2ccccc12` [Example 42, 2-[3-(3,4,5-Tribromobenzylamino)prop-1-ylamino]-1H-quinolin-4-one], the minimal inhibitory concentration (MIC) in test [1] is 2 to 64 µg/mL (≈ 3.68 to 118 µM); in test [2] (setting [5]), less than 1 µg/mL.

Take `C/C(=C\C(=O)OCCCCCCCCC(=O)O)C[C@@H]1OC[C@H](C[C@@H]2O[C@H]2[C@@H](C)[C@H](C)O)[C@@H](O)[C@H]1O` [Mupirocin]: in test [3], the “inhibition of isoleucyl t-RNA synthetase” value is listed as “inhibitor”.

`O=c1cc(NCCCNCc2cc(Cl)cc(Cl)c2OCc2ccccc2)[nH]c2ccccc12` [Example 39, 2-[3-(2-Benzyloxy-3,5-dichlorobenzylamino)prop-1-ylamino]-1H-quinolin-4-one]: the figures for the minimum inhibitory concentration (MIC) in test [1] and in test [2] (setting [5]) were 2 to 64 µg/mL (≈ 4.15 to 133 µM) and less than 1 µg/mL, respectively.

For the compound `CCOc1c(Br)cc(Br)cc1CNCCCNc1cc(=O)c2ccccc2[nH]1.Cl.Cl` [Example 46, 2-[3-(3,5-Dibromo-2-ethoxybenzylamino)prop-1-ylamino]-1H-quinolin-4-one dihydrochloride], the MIC in test [1] was 2 to 64 µg/mL; in test [2] (setting [5]) it was less than 1 µg/mL.

As to `O=c1cc(NCCCNCc2cc3c(Cl)cc(Cl)cc3[nH]2)[nH]c2ccccc12` [Example 76, 2-[3-(4,6-Dichloroindol-2-ylmethylamino)prop-1-ylamino]-1H-quinolin-4-one], the minimum inhibitory concentration (MIC) in test [1] is 2 to 64 µg/mL (≈ 4.82 to 154 µM); in test [2] (setting [5]), less than 1 µg/mL.

With `O=c1cc(NC[C@H]2CCC[C@@H]2NCc2cc(Br)cc(Br)c2)[nH]c2ccccc12` [Example 73, 2-{[(1R,2S)-2-(3,5-Dibromobenzylamino)cyclopentyl-methyl]amino}-1H-quinolin-4-one], the MIC in test [1] is 2 to 64 µg/mL (≈ 3.96 to 127 µM); in test [2] (setting [5]), less than 1 µg/mL.

As for `Nc1c(Br)cc(Br)cc1CNCCCNc1cc(=O)c2ccccc2[nH]1` [Example 77, 2-[3-(2-Amino-3,5-dibromobenzylamino)prop-1-ylamino]-1H-quinolin-4-one], the MIC was 2 to 64 µg/mL (≈ 4.16 to 133 µM) in test [1] and less than 1 µg/mL in test [2] (setting [5]).

Regarding `O=c1cc(NCCCNCc2cc(Cl)cc(Cl)c2Cl)[nH]c2ccccc12` [Example 45, 2-[3-(2,3,5-Trichliorobenzylamino)prop-1-ylamino]-1H-quinolin-4-one dihydrochloride], the MIC is 2 to 64 µg/mL in test [1] and less than 1 µg/mL in test [2] (setting [5]).

On to `O=c1cc(NC[C@H]2CCC[C@@H]2NCc2cc(Br)c(Br)s2)[nH]c2ccccc12` [Example 74, 2-{[(1R,2S)-2-(4,5-Dibromo-2-thiophenemethylamino)-cyclopentylmethyl]amino}-1H-quinolin-4-one], for which the MIC in test [1] was 2 to 64 µg/mL (≈ 3.91 to 125 µM); in test [2] (setting [5]), less than 1 µg/mL.

On to `O=c1cc(NCCCNC2CCCc3c2[nH]c2ccccc32)[nH]c2ccccc12` (stereo not shown) [Example 64, 2-[3-(2,3,4,9-Tetrahydro-1H-carbazol-1-ylamino)prop-1-ylamino]-1H-quinolin-4-one], for which, in test [4], the “antibacterial activity against H. influenzae” value is listed as “active”.

As for `Cl.O=c1cc(NCCCNCc2ccc(Cl)c(Cl)c2)[nH]c2ccccc12` [Example 18, 2-[3-(3,4-Dichlorobenzylamino)prop-1-ylamino]-1H-quinolin-4-one hydrochloride], the MIC in test [1] was 2 to 64 µg/mL; in test [2], less than 1 µg/mL.

Take `CCOc1c(Br)cc(Br)cc1CN[C@H]1CCC[C@@H]1CNc1cc(=O)c2ccccc2[nH]1` [Example 75, 2-{[(1R,2S)-2-(3,5-Dibromo-2-ethoxybenzylamino)cyclopentyl-methyl]amino}-1H-quinolin-4-one]: the MIC in test [1] is 2 to 64 µg/mL (≈ 3.64 to 117 µM); in test [2] (setting [5]), less than 1 µg/mL.

For `O=c1cc(NCCCNCc2cc(I)cc(I)c2)[nH]c2ccccc12` [Example 36, 2-[3-(3,5-Diiodobenzylamino)prop-1-ylamino]-1H-quinolin-4-one], the figures for the MIC in test [1] and in test [2] (setting [5]) were 2 to 64 µg/mL (≈ 3.58 to 114 µM) and less than 1 µg/mL, respectively.

For the compound `O=c1cc(NCCCNCc2cc(Br)cc(Br)c2)[nH]c2ccccc12` [Example 40, 2-[3-(3,5-Dibromobenzylamino)prop-1-ylamino]-1H-quinolin-4-one], the minimal inhibitory concentration (MIC) in test [1] is 2 to 64 µg/mL (≈ 4.3 to 138 µM); in test [2] (setting [5]), less than 1 µg/mL.

Turning to `C=CCOc1c(Cl)cc(Cl)cc1CNCCCNc1cc(=O)c2ccccc2[nH]1` [Example 68, 2-[3-(2-Allyloxy-3,5-dichlorobenzylamino)prop-1-ylamino]-1H-quinolin-4-one], the results for the minimum inhibitory concentration (MIC) in test [1] and in test [2] (setting [5]) were 2 to 64 µg/mL (≈ 4.63 to 148 µM) and less than 1 µg/mL, respectively.

On to `O=c1cc(NCCCNCc2cc(Cl)cc(Cl)c2OCCc2ccccc2)[nH]c2ccccc12` [Example 69, 2-[3-(3,5-Dichloro-2-phenethoxybenzylamino)propylamino]-1H-quinolin-4-one], for which the MIC in test [1] was 2 to 64 µg/mL (≈ 4.03 to 129 µM); in test [2] (setting [5]), less than 1 µg/mL.

With `O=c1cc(NCCCNC2CCCc3c2cc(Cl)c(Cl)c3Cl)[nH]c2ccccc12` (stereo not shown) [Example 53, 2-[3-(5,6,7-Trichloro-1,2,3,4-tetrahydronaphth-1-ylamino)prop-1-ylamino]-1H-quinolin-4-one], the values for the MIC in test [1] and in test [2] were 2 to 64 µg/mL (≈ 4.44 to 142 µM) and less than 1 µg/mL, respectively.

In the case of `O=c1cc(NCCCNCc2cc(Br)c(Br)s2)[nH]c2ccccc12` [Example 37], the MIC was 2 to 64 µg/mL (≈ 4.24 to 136 µM) in test [1] and less than 1 µg/mL in test [2] (setting [5]).

As to `O=c1cc(NCC2CCCC2NCc2ccc(Cl)c(Cl)c2)[nH]c2ccccc12` (stereo not shown) [Example 60, 2-{[2-(3,4-Dichlorobenzylamino)cyclopentyl]methylamino}-1H-quinolin-4-one], the minimal inhibitory concentration (MIC) was 2 to 64 µg/mL (≈ 4.8 to 154 µM) in test [1] and less than 1 µg/mL in test [2].

Consider `Cc1c(Br)cc(CNCCCNc2cc(=O)c3ccccc3[nH]2)cc1Br` [Example 41, 2-[3-(3,5-Dibromo-4-methylbenzylamino)prop-1-ylamino]-1H-quinolin-4-one], for which the MIC is 2 to 64 µg/mL (≈ 4.17 to 134 µM) in test [1] and less than 1 µg/mL in test [2] (setting [5]).

On to `O=c1cc(NCCCNC2CCc3c(Cl)sc(Cl)c32)[nH]c2ccccc12` (stereo not shown) [Example 47, 2-[3-(1,3-Dichloro-5,6-dihydro-4H-cyclopenta[c]thiophen-4-ylamino]prop-1-ylamino}-1H-quinolin-4-one], for which the MIC in test [1] was 2 to 64 µg/mL (≈ 4.9 to 157 µM); in test [2] (setting [5]), less than 1 µg/mL.

On to `O=c1cc(NCCCNCc2cc(Br)cc(I)c2)[nH]c2ccccc12` [Example 43, 2-[3-(3-Bromo-5-iodobenzylamino)prop-1-ylamino]-1H-quinolin-4-one], for which the MIC in test [1] is 2 to 64 µg/mL (≈ 3.9 to 125 µM); in test [2] (setting [5]), less than 1 µg/mL.

In the case of `O=c1cc(NC[C@H]2CCC[C@@H]2NCc2ccc(Cl)c(Cl)c2)[nH]c2ccccc12` [Example 71, 2-{[(1R,2S)-2-(3,4-Dichlorobenzylamino)cyclopentylmethyl]amino}-1H-quinolin-4-one], the MIC is 2 to 64 µg/mL (≈ 4.8 to 154 µM) in test [1] and less than 1 µg/mL in test [2].

`O=c1cc(NCCCNCc2ccc(Cl)c(C(F)(F)F)c2)[nH]c2ccccc12` [Example 38, 2-[3-(4-Chloro-3-trifluoromethylbenzylamino)prop-1-ylamino]-1H-quinolin-4-one]: the MIC in test [1] was 2 to 64 µg/mL (≈ 4.88 to 156 µM); in test [2] (setting [5]), less than 1 µg/mL.

Turning to `CC(C)(C)OC(=O)COc1c(Cl)cc(Cl)cc1CNCCCNc1cc(=O)c2ccccc2[nH]1` [Example 67, 2-[3-(2-tert-Butoxycarbonylmethoxy-3,5-dichlorobenzylamino)prop-1-ylamino]-1H-quinolin-4-one], the MIC is 2 to 64 µg/mL (≈ 3.95 to 126 µM) in test [1] and less than 1 µg/mL in test [2] (setting [5]).

With `O=c1cc(NCCCNC2CCc3c(Cl)cc(Cl)cc32)[nH]c2ccccc12` (stereo not shown) [Example 55, 2-[3-(4,6-Dichloroindan-1-ylamino)prop-1-ylamino]-1H-quinolin-4-one], the MIC is 2 to 64 µg/mL (≈ 4.97 to 159 µM) in test [1] and less than 1 µg/mL in test [2].

As to `O=c1cc(NCCCNC2CCCc3c(Cl)cc(Cl)cc32)[nH]c2ccccc12` (stereo not shown) [Example 51, 2-[3-(5,7-Dichloro-1,2,3,4-tetrahydronaphth-1-ylamino)prop-1-ylamino]-1H-quinolin-4-one], the MIC in test [1] was 2 to 64 µg/mL (≈ 4.8 to 154 µM); in test [2], less than 1 µg/mL.

These data come from US6320051A, “Quinolones used as MRS inhibitors and bactericides” (SmithKline Beecham plc, priority 1998, dated 2001).
